These results are taken from patent US10464926B2, “Heterobicyclic compounds and their use for the treatment of tuberculosis” (OTSUKA PHARMACEUTICAL CO., LTD., priority 2014, dated 2019).

As to `COc1cc(F)c(N2CCC(O)(COc3ccc(F)c4c3CCC(=O)N4)CC2)c(F)c1`, the melting point was 195.7 to 196.4 °C. In the case of `O=C1CCc2c(cccc2OCC2(O)CCN(c3ccc(Cl)cc3F)CC2)N1` it was 231.6 to 232.9 °C. Molecule `O=C1CCc2c(OCC3(O)CCN(c4cc(F)c(Cl)cc4F)CC3)ccc(Cl)c2N1` yielded a melting point of 190.3 to 190.4 °C.

For `CCOc1cc(N2CCC(O)(COc3ccc(F)c4c3CCC(=O)N4)CC2)c(F)cc1Cl`, the melting point was in the range of 239.8 to 239.9 °C. `O=C1CCc2c(OCC3(O)CCN(c4ccc(OC(F)F)cc4F)CC3)ccc(F)c2N1` registered a melting point of 201.6 to 202 °C. As for `O=C1CCc2c(OCC3(O)CCN(c4c(F)cc(F)cc4F)CC3)ccc(Cl)c2N1`, the melting point lay in the range of 175.6 to 176.1 °C. In the case of `O=C1CCc2c(OCC3(O)CCN(c4ccc(F)cc4F)CC3)ccc(F)c2N1` it was 201.7 to 201.9 °C; in that of `NC1(COc2ccc(F)c3c2CCC(=O)N3)CCN(c2ncc(F)cc2F)CC1`, 160.9 to 163.1 °C. The same measure for `Cc1ccc(N2CCC(O)(COc3ccc(F)c4c3CCC(=O)N4)CC2)nc1C`: 197.9 to 199.6 °C; for `CSc1ccc(N2CCC(O)(COc3ccc(F)c4c3CCC(=O)N4)CC2)c(Cl)c1`: 207.4 to 207.6 °C; for `O=C1CCc2c(OCC3(O)CCN(c4ccc(OCC(F)(F)F)cc4F)CC3)ccc(Cl)c2N1`: 148.6 to 148.7 °C. In the case of `O=C1CCc2c(OC[C@]3(O)CCN(c4ccc(F)cc4F)C[C@H]3O)ccc(F)c2N1` it was 175.2 to 176.1 °C. `O=C1CCc2c(OC[C@]3(O)CCN(c4ccccc4)C[C@H]3O)ccc(F)c2N1` returned a melting point of 202.8 to 203.5 °C. Turning to `O=C1CCc2c(OC[C@]3(O)CCN(c4ccc(OC(F)F)cc4)C[C@H]3O)ccc(F)c2N1`, the melting point fell in the range of 163.1 to 164.6 °C. On to `O=C1CCc2c(OC[C@]3(O)CCN(c4nc5ccccc5[nH]4)C[C@H]3O)ccc(F)c2N1`, for which the melting point lay within 279 to 281 °C. As to `O=C1CCc2c(OC[C@]3(O)CCN(c4ccc(Cl)cc4F)C[C@@H]3O)ccc(F)c2N1`, the melting point was in the range of 198.6 to 198.8 °C. The same measure for `O=c1ccc2c(OC[C@]3(O)CCN(c4ccc(Br)cc4F)C[C@H]3O)ccc(F)c2[nH]1`: 224.5 °C (dec.); for `NOC1(COc2ccc(F)c3c2CCC(=O)N3)CCN(c2ncc(Cl)cc2Cl)CC1`: 147 to 149 °C; for `CC(=O)O[C@@H]1CN(c2c(F)cc(Cl)cc2F)CC[C@@]1(O)COc1ccc(F)c2c1CCC(=O)N2`: 163 to 165 °C. With `CCOC(=O)O[C@@H]1CN(c2ccc(Cl)cc2F)CC[C@@]1(O)COc1ccc(F)c2c1CCC(=O)N2`, the melting point lay within 171 to 172 °C. In the case of `O=C1CCc2c(OCC3(O)CCN(c4ccccc4)CC3)ccc(F)c2N1`, the melting point was in the range of 177 to 177.4 °C. The same measure for `CCOc1cccc(N2CCC(O)(COc3ccc(F)c4c3CCC(=O)N4)CC2)c1`: 128.1 °C; for `O=C1CCc2c(OCC3(O)CCN(c4c(Cl)cncc4Cl)CC3)ccc(F)c2N1`: 225.8 to 225.9 °C. On to `O=C1CCc2c(OCC3(O)CCN(c4cc([N+](=O)[O-])ccc4Cl)CC3)ccc(F)c2N1`, for which the melting point lay in the range of 204.8 to 205.4 °C. `CC(C)c1ccc(N2CCC(O)(COc3ccc(F)c4c3CCC(=O)N4)CC2)c(Cl)c1`: the melting point lay within 176.5 to 176.9 °C. In the case of `Cc1cc(Cl)cc(Cl)c1N1CCC(O)(COc2ccc(F)c3c2CCC(=O)N3)CC1` it was 251.6 to 251.9 °C; in that of `O=C1CCc2c(OCC3(O)CCN(c4c(F)cc(Cl)cc4Cl)CC3)ccc(F)c2N1`, 238.8 to 239.1 °C; in that of `O=C1CCc2c(OC[C@@]3(O)CCN(c4ncc(Cl)cc4Cl)C[C@@H]3O)ccc(F)c2N1` (relative stereo), 202.6 to 204.8 °C. The same measure for `O=C1CCc2c(OC[C@@]3(O)CCN(c4ccc(Cl)cc4F)C[C@@H]3O)ccc(F)c2N1` (relative stereo): 191.9 to 193.5 °C.

On to `O=C1CCc2c(OC[C@@]3(O)CCN(c4c(F)cc(Cl)cc4F)C[C@@H]3O)cc(F)c(F)c2N1` (relative stereo), for which the melting point was in the range of 215 to 217 °C. Take `O=C1CCc2c(OC[C@]3(O)CCN(c4cc5c(cc4F)OC(F)(F)O5)C[C@H]3O)ccc(F)c2N1` (relative stereo): the melting point lay within 197.4 to 197.5 °C. Turning to `O=C1CCc2c(OC[C@]3(O)CCN(c4ccc(Br)cc4F)C[C@H]3O)cc(F)c(F)c2N1` (relative stereo), the melting point was in the range of 214 to 216 °C. Molecule `O=C1CCc2c(OC[C@]3(O)CCN(c4ccc(Br)cc4F)C[C@H]3O)cc(F)c(Cl)c2N1` (relative stereo) showed a melting point of 194 °C. As to `O=C1CCc2c(OC[C@@]3(O)CCN(c4cc(F)c(Cl)cc4F)C[C@H]3O)ccc(F)c2N1` (relative stereo), the melting point lay within 184 to 185 °C. As for `O=C1CCc2c(OC[C@]3(O)CCN(c4c(F)cc(Br)cc4F)C[C@@H]3O)ccc(F)c2N1` (relative stereo), the melting point lay in the range of 209 to 210 °C. The molecule `O=C1CCc2c(OC[C@H]3CCN(c4cc(F)c(Cl)cc4F)C[C@@H]3O)ccc(F)c2N1` (relative stereo) gave a melting point of 168.9 to 172.7 °C.

On to `CO[C@H]1CN(c2ncc(Cl)cc2Cl)CC[C@@]1(O)COc1ccc(F)c2c1CCC(=O)N2` (relative stereo), for which the melting point lay within 186 to 187 °C. `CO[C@H]1CN(c2ncc(Cl)cc2Cl)CC[C@]1(O)COc1ccc(F)c2c1CCC(=O)N2` (relative stereo) returned a melting point of 162.8 to 164 °C. In the case of `C[C@H]1CN(c2ncc(Cl)cc2Cl)CC[C@@]1(O)COc1ccc(F)c2c1CCC(=O)N2` (relative stereo), the melting point was 222 to 223 °C. In the case of `N#C[C@H]1CN(c2ncc(Cl)cc2Cl)CC[C@@]1(O)COc1ccc(F)c2c1CCC(=O)N2` (relative stereo) it was 206 to 207 °C; in that of `C[C@]1(O)CN(c2ncc(Cl)cc2Cl)CC[C@]1(O)COc1ccc(F)c2c1CCC(=O)N2` (relative stereo), 182.6 to 187.5 °C. For the molecule `O=C1CCc2c(OC[C@]3(O)CCN(c4ccc(Cl)cc4F)C[C@@H]3F)ccc(F)c2N1` (relative stereo), the melting point was in the range of 190 to 191 °C.

Turning to `O=C1CCc2c(OC[C@]3(O)CCN(c4ccc(Cl)cc4F)C[C@H]3F)ccc(F)c2N1` (relative stereo), the melting point fell in the range of 194 to 195 °C. The molecule `O=C1CCc2c(OC[C@]3(O)CCN(c4ccc(F)cc4Cl)C[C@@H]3F)ccc(F)c2N1` (relative stereo) returned a melting point of 204 to 205 °C. In turn, `O=C1CCc2c(OC[C@]3(O)CCN(c4ccc(F)cc4Cl)C[C@H]3F)ccc(F)c2N1` (relative stereo) showed a melting point of 218 to 220 °C. In turn, `O=C1CCc2c(OCC3(O)[C@H](O)CN(c4c(F)cc(Cl)cc4F)C[C@H]3O)ccc(F)c2N1` (relative stereo) showed a melting point of 221.5 to 222 °C.

On to `O=C1CCc2c(OC[C@]3(O)CCN(c4ccc(Br)cc4F)C[C@H]3O)ccc(Cl)c2N1` (relative stereo) [Example 269], for which the melting point fell in the range of 190 to 192 °C. The same measure for `O=C1CCc2c(OC[C@]3(O)CCN(c4c(F)cc(Cl)cc4F)C[C@H]3O)cc(F)c(Cl)c2N1` (relative stereo) [Example 277]: 201 to 204 °C; for `O=C1CCc2c(OC[C@]3(O)CCN(c4c(F)cc(Br)cc4F)C[C@H]3O)ccc(F)c2N1` (relative stereo) [Example 301]: 191 to 193 °C.

Consider `O=C1CCc2c(OC[C@]3(O)CCN(c4c(F)cc(F)cc4Cl)C[C@H]3O)ccc(F)c2N1` (relative stereo) [Example 303], for which the melting point is 215 to 218 °C. Regarding `O=C1CCc2c(OC[C@]3(O)CCN(c4c(F)cc(F)cc4F)C[C@H]3O)ccc(F)c2N1` (relative stereo) [Example 305], the melting point was 198 to 199 °C.

`O=C1CCc2c(OC[C@]3(O)CCN(c4c(F)cc(OCC(F)(F)F)cc4F)C[C@H]3O)ccc(F)c2N1` (relative stereo) [Example 310] showed a melting point of 201 to 202 °C. Consider `O=C1CCc2c(OC[C@]3(O)CCN(c4c(F)cc(OC(F)F)cc4F)C[C@H]3O)ccc(F)c2N1` (relative stereo) [Example 314], for which the melting point fell in the range of 167 to 169 °C. The molecule `CCOc1cc(F)c(N2CC[C@@](O)(COc3ccc(F)c4c3CCC(=O)N4)[C@H](O)C2)c(F)c1` (relative stereo) [Example 316] returned a melting point of 199 to 202 °C. The same measure for `O=C1CCc2c(OC[C@]3(O)CCN(c4ccc(Cl)cc4F)C[C@H]3O)cc(F)c(F)c2N1` (relative stereo) [Example 330]: 220.5 to 221.3 °C; for `O=C1CCc2c(OC[C@]3(O)CCN(c4ccc(Cl)cc4F)C[C@H]3O)ccc(Cl)c2N1` (relative stereo) [Example 334]: 195.5 to 195.6 °C; for `O=C1CCc2c(OC[C@]3(O)CCN(c4ccc(F)cc4)C[C@H]3O)ccc(F)c2N1` (relative stereo) [Example 336]: 182.4 to 182.5 °C. Take `O=C1CCc2c(OC[C@]3(O)CCN(c4c(F)cc(Br)cc4F)C[C@H]3O)ccc(Cl)c2N1` (relative stereo) [Example 339]: the melting point fell in the range of 195 to 198 °C. In the case of `O=C1CCc2c(cccc2OC[C@]2(O)CCN(c3c(F)cc(Cl)cc3F)C[C@H]2O)N1` (relative stereo) [Example 349] it was 233 °C; in that of `O=c1ccc2c(OC[C@]3(O)CCN(c4c(F)cc(Cl)cc4F)C[C@H]3O)ccc(F)c2[nH]1` (relative stereo) [Example 371], 232 °C. In the case of `O=C1CCc2c(OC[C@]3(O)CCN(c4c(F)cc(Cl)cc4F)C[C@@H]3F)ccc(F)c2N1` (relative stereo) [Example 439], the melting point lay in the range of 223 to 224 °C. `O=C1CCc2c(OC[C@]3(O)CCN(c4c(F)cc(Cl)cc4F)C[C@H]3F)ccc(F)c2N1` (relative stereo) [Example 440] gave a melting point of 222 to 223 °C. With `O=C1CCc2c(OC[C@]3(O)CCN(c4ccc(Br)cc4F)C[C@H]3O)ccc(Cl)c2N1` [Example 271], the melting point was 183 to 184 °C. `O=C1CCc2c(OC[C@]3(O)CCN(c4c(F)cc(Cl)cc4F)C[C@H]3O)cc(F)c(Cl)c2N1` [Example 278] showed a melting point of 192 to 194 °C.

The melting point is the temperature of the solid-liquid transition.
